Patent US20240239790A1, “7-Morpholino-1,6-Naphthyridin-5-yl Derivatives and Pharmaceutical Compositions Thereof Useful as DNA-PK Inhibitor” (adMare Therapeutics Society, priority 2021, published 2024)

Assays:
[1] = Microsomal Stability Assay, mouse liver microsomes; assay type: in vitro ADME; details: for microsomal CLint at 0.1 uM: male, CD-1, pH 7.4, mouse liver microsomes 0.1 mg/mL, 0.1 uM compound; for Microsomal Stability Mouse % rem. 60 min: mouse liver microsomes
Method: (§1) Samples were then mixed and centrifuged. Supernatants were used for HPLC-MS/MS analysis. […] Peak areas corresponding to the test compound were recorded.

[2] = Microsomal Stability Assay, human liver microsomes; assay type: in vitro ADME; details: for microsomal CLint at 0.1 uM: both sexes, pH 7.4, human liver microsomes 0.1 mg/mL, 0.1 uM compound; for Microsomal Stability Human % rem. 60 min: human liver microsomes
Method: as §1

[3] = Hepatocyte Stability Assay, human hepatocytes; assay type: in vitro ADME; details: for hepatocyte CLint at 1 uM: both sexes, cryopreserved hepatocytes, pH 7.3, human hepatocytes 0.7 million cells per mL, 1 uM compound; for Hepatocyte Stability Human % rem. 120 min: human hepatocytes
Method: Cryopreserved mouse hepatocytes were obtained from a pool of 10 or more male CD-1 mice. Cryopreserved human hepatocytes were obtained from a pool of 10 or more donors of mixed gender. Final hepatocyte density was 0.7 million viable cells per mL and test compound concentration was 1 uM with a maximum of 0.01% DMSO. Cryopreserved hepatocytes were thawed, washed, and resuspended in Krebs-Heinslet buffer (pH 7.3). The reaction was initiated by adding the test compound into cell suspension and incubated for 0, […], 1, 1.5, and 2 h, respectively, at 37° C./5% C02. The reaction was stopped by adding acetonitrile into the incubation mixture. Samples were then mixed, transferred completely to another 96-well plate, and centrifuged. Supernatants were used for HPLC-MS/MS analysis. […] Peak areas corresponding to the test compound were recorded.

[4] = biological target: T1, DNA-PK phosphorylation at Serine 2056 (Homo sapiens, UniProt P78527); assay: Cellular Assay for Inhibition of DNA-PK Phosphorylation at Serine 2056 in FaDu cells (sandwich ELISA, neocarzinostatin); assay type: cell-based; details: pSer2056 DNA-PK, neocarzinostatin 1 μg/mL, Table 1
T1 construct: FaDu cells were purchased from ATCC; host or cells: FaDu
Procedure, shortened: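 FaDu cells pre-treated with compound (0.3% DMSO) for 1 h, then neocarzinostatin 1 μg/mL final added for 2 h to induce DSBs. Protein-normalised lysates read by sandwich ELISA for total and pSer2056 DNA-PK; % inhibition normalised between DMSO and NCS controls, IC50 from variable-slope log(inhibitor) fit.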

CN1CCN(C(=O)COc2cnc(N[C@H]3CC[C@@H](Oc4nc(N5CCOCC5)cc5ncccc45)CC3)nc2)CC1 [Compound 62, 1-(4-Methylpiperazin-1-yl)-2-((2-(((1s,4s)-4-((7-morpholino-1,6-naphthyridin-5-yl)oxy)cyclohexyl)amino)pyrimidin-5-yl)oxy)ethan-1-one]
microsomal CLint at 0.1 uM [1]: < 116 µL/min/mg | Microsomal Stability Mouse % rem. 60 min [1]: F (% remaining = 25-50%) | microsomal CLint at 0.1 uM [2]: < 116 µL/min/mg | Microsomal Stability Human % rem. 60 min [2]: G (% remaining = 50-75%) | hepatocyte CLint at 1 uM [3]: > 8.2 µL/min/1e6 cells | Hepatocyte Stability Human % rem. 120 min [3]: F (% remaining = 25-50%) | IC50 [4]: < 100 nM

CS(=O)(=O)c1cnc2cc(N3CCOCC3)nc(O[C@H]3CC[C@@H](NC(=O)c4ncco4)CC3)c2c1 [Compound 204c, N-((1s,4s)-4-((3-(methylsulfonyl)-7-morpholino-1,6-naphthyridin-5-yl)oxy)cyclohexyl)oxazole-2-carboxamide]
hepatocyte CLint at 1 uM [3]: < 8.2 µL/min/1e6 cells | Hepatocyte Stability Human % rem. 120 min [3]: H (% remaining = 75-100%) | IC50 [4]: < 100 nM

c1cnc2cc(N3CCOCC3)nc(O[C@H]3CC[C@@H](Nc4ncc(OCCN5CCOCC5)cn4)CC3)c2c1 [Compound 68, N-((1s,4s)-4-((7-Morpholino-1,6-naphthyridin-5-yl)oxy)cyclohexyl)-5-(2-morpholinoethoxy)pyrimidin-2-amine]
microsomal CLint at 0.1 uM [1]: < 116 µL/min/mg | Microsomal Stability Mouse % rem. 60 min [1]: F (% remaining = 25-50%) | hepatocyte CLint at 1 uM [3]: > 8.2 µL/min/1e6 cells | Hepatocyte Stability Human % rem. 120 min [3]: F (% remaining = 25-50%) | IC50 [4]: 100 to 1000 nM

Cn1c(=O)n(C)c2nc(N[C@H]3CC[C@@H](Oc4nc(N5CCOCC5)cc5ncccc45)CC3)ncc21 [Compound 101, 7,9-Dimethyl-2-(((1s,4s)-4-((7-morpholino-1,6-naphthyridin-5-yl)oxy)cyclohexyl)amino)-7,9-dihydro-8H-purin-8-one]
hepatocyte CLint at 1 uM [3]: > 8.2 µL/min/1e6 cells | Hepatocyte Stability Human % rem. 120 min [3]: F (% remaining = 25-50%) | IC50 [4]: < 100 nM

O=C(Cn1c(=O)n(C2CCOCC2)c2nc(N[C@H]3CC[C@@H](Oc4nc(N5CCOCC5)cc5ncccc45)CC3)ncc21)N1CCOCC1 [Compound 98, 2-(((1s,4s)-4-((7-Morpholino-1,6-naphthyridin-5-yl)oxy)cyclohexyl)amino)-7-(2-morpholino-2-oxoethyl)-9-(tetrahydro-2H-pyran-4-yl)-7,9-dihydro-8H-purin-8-one]
hepatocyte CLint at 1 uM [3]: > 8.2 µL/min/1e6 cells | Hepatocyte Stability Human % rem. 120 min [3]: F (% remaining = 25-50%) | IC50 [4]: < 100 nM

O=S(=O)(CC(F)F)Nc1cnc2cc(N3CCOCC3)nc(O[C@H]3CC[C@@H](Nc4ncccn4)CC3)c2c1 [Compound 193, 2,2-difluoro-N-(7-morpholino-5-(((1s,4s)-4-(pyrimidin-2-ylamino)cyclohexyl)oxy)-1,6-naphthyridin-3-yl)ethane-1-sulfonamide]
hepatocyte CLint at 1 uM [3]: < 8.2 µL/min/1e6 cells | Hepatocyte Stability Human % rem. 120 min [3]: G (% remaining = 50-75%) | IC50 [4]: 100 to 1000 nM

O=S(=O)(CF)Nc1cnc2cc(N3CCOCC3)nc(O[C@H]3CC[C@@H](Nc4ncccn4)CC3)c2c1 [Compound 192, 1-fluoro-N-(7-morpholino-5-(((1s,4s)-4-(pyrimidin-2-ylamino)cyclohexyl)oxy)-1,6-naphthyridin-3-yl)methanesulfonamide]
hepatocyte CLint at 1 uM [3]: < 8.2 µL/min/1e6 cells | Hepatocyte Stability Human % rem. 120 min [3]: H (% remaining = 75-100%) | IC50 [4]: 100 to 1000 nM

CN(C)CCOc1cnc(N[C@H]2CC[C@@H](Oc3nc(N4CCOCC4)cc4ncccc34)CC2)nc1 [Compound 64, 5-(2-(Dimethylamino)ethoxy)-N-((1s,4s)-4-((7-morpholino-1,6-naphthyridin-5-yl)oxy)cyclohexyl)pyrimidin-2-amine]
microsomal CLint at 0.1 uM [1]: < 116 µL/min/mg | Microsomal Stability Mouse % rem. 60 min [1]: G (% remaining = 50-75%) | microsomal CLint at 0.1 uM [2]: < 116 µL/min/mg | Microsomal Stability Human % rem. 60 min [2]: H (% remaining = 75-100%) | IC50 [4]: 100 to 1000 nM

CN(C)C(=O)Cn1c(=O)n(C)c2nc(N[C@H]3CC[C@@H](Oc4nc(N5CCOCC5)cc5ncccc45)CC3)ncc21 [Compound 102, N,N-Dimethyl-2-(9-methyl-2-(((1s,4s)-4-((7-morpholino-1,6-naphthyridin-5-yl)oxy)cyclohexyl)amino)-8-oxo-8,9-dihydro-7H-purin-7-yl)acetamide]
hepatocyte CLint at 1 uM [3]: < 8.2 µL/min/1e6 cells | Hepatocyte Stability Human % rem. 120 min [3]: G (% remaining = 50-75%) | IC50 [4]: < 100 nM

CS(=O)(=O)c1cnc2cc(N3CCOCC3)nc(O[C@H]3CC[C@@H](Nc4ncc(OCC(=O)N5CCOCC5)cn4)CC3)c2c1 [Compound 204a, 2-((2-(((1s,4s)-4-((3-(methylsulfonyl)-7-morpholino-1,6-naphthyridin-5-yl)oxy)cyclohexyl)amino)pyrimidin-5-yl)oxy)-1-morpholinoethan-1-one]
hepatocyte CLint at 1 uM [3]: < 8.2 µL/min/1e6 cells | Hepatocyte Stability Human % rem. 120 min [3]: H (% remaining = 75-100%) | IC50 [4]: 100 to 1000 nM

CS(=O)(=O)c1cnc2cc(N3CCOCC3)nc(O[C@H]3CC[C@@H](Nc4ncnc5ccoc45)CC3)c2c1 [Compound 204b, N-((1s,4s)-4-((3-(methylsulfonyl)-7-morpholino-1,6-naphthyridin-5-yl)oxy)cyclohexyl)furo[3,2-d]pyrimidin-4-amine]
hepatocyte CLint at 1 uM [3]: < 8.2 µL/min/1e6 cells | Hepatocyte Stability Human % rem. 120 min [3]: G (% remaining = 50-75%) | IC50 [4]: < 100 nM

CS(=O)(=O)c1cnc2cc(N3CCOCC3)nc(O[C@H]3CC[C@@H](Nc4ncccn4)CC3)c2c1 [Compound 200b, N-((1s,4s)-4-((3-(methylsulfonyl)-7-morpholino-1,6-naphthyridin-5-yl)oxy)cyclohexyl)pyrimidin-2-amine]
hepatocyte CLint at 1 uM [3]: < 8.2 µL/min/1e6 cells | Hepatocyte Stability Human % rem. 120 min [3]: G (% remaining = 50-75%) | IC50 [4]: 100 to 1000 nM

O=C(Cn1c(=O)n(C2CCOCC2)c2nc(N[C@H]3CC[C@@H](Oc4nc(N5CCOCC5)cc5ncccc45)CC3)ncc21)N1CCC1 [Compound 99, 7-(2-(Azetidin-1-yl)-2-oxoethyl)-2-(((1s,4s)-4-((7-morpholino-1,6-naphthyridin-5-yl)oxy)cyclohexyl)amino)-9-(tetrahydro-2H-pyran-4-yl)-7,9-dihydro-8H-purin-8-one]
hepatocyte CLint at 1 uM [3]: > 8.2 µL/min/1e6 cells | Hepatocyte Stability Human % rem. 120 min [3]: F (% remaining = 25-50%) | IC50 [4]: < 100 nM

O=C(O)c1cnc2cc(N3CCOCC3)nc(O[C@H]3CC[C@@H](n4ccnc4)CC3)c2c1 [Compound 165, 5-(((1s,4s)-4-(1H-imidazol-1-yl)cyclohexyl)oxy)-7-morpholino-1,6-naphthyridine-3-carboxylic acid]
microsomal CLint at 0.1 uM [1]: < 116 µL/min/mg | Microsomal Stability Mouse % rem. 60 min [1]: H (% remaining = 75-100%) | IC50 [4]: 10000 to 30000 nM

CS(=O)(=O)NC(=O)c1cnc2cc(N3CCOCC3)nc(O[C@H]3CC[C@@H](n4ccnc4)CC3)c2c1 [Compound 175, 5-(((1s,4s)-4-(1H-imidazol-1-yl)cyclohexyl)oxy)-N-(methylsulfonyl)-7-morpholino-1,6-naphthyridine-3-carboxamide]
microsomal CLint at 0.1 uM [1]: < 116 µL/min/mg | Microsomal Stability Mouse % rem. 60 min [1]: H (% remaining = 75-100%) | IC50 [4]: 10000 to 30000 nM

O=C(NO)c1cnc2cc(N3CCOCC3)nc(O[C@H]3CC[C@@H](n4ccnc4)CC3)c2c1 [Compound 172, 5-(((1s,4s)-4-(1H-imidazol-1-yl)cyclohexyl)oxy)-N-hydroxy-7-morpholino-1,6-naphthyridine-3-carboxamide]
microsomal CLint at 0.1 uM [1]: < 116 µL/min/mg | Microsomal Stability Mouse % rem. 60 min [1]: G (% remaining = 50-75%) | IC50 [4]: 1000 to 10000 nM

O=c1[nH]c2cnc(N[C@H]3CC[C@@H](Oc4nc(N5CCOCC5)cc5ncccc45)CC3)nc2n1C1CCOCC1 [Compound 95, 2-(((1s,4s)-4-((7-Morpholino-1,6-naphthyridin-5-yl)oxy)cyclohexyl)amino)-9-(tetrahydro-2H-pyran-4-yl)-7,9-dihydro-8H-purin-8-one]
hepatocyte CLint at 1 uM [3]: > 8.2 µL/min/1e6 cells | Hepatocyte Stability Human % rem. 120 min [3]: F (% remaining = 25-50%) | IC50 [4]: < 100 nM

Cn1c(=O)[nH]c2cnc(N[C@H]3CC[C@@H](Oc4nc(N5CCOCC5)cc5ncccc45)CC3)nc21 [Compound 100, 9-Methyl-2-(((1s,4s)-4-((7-morpholino-1,6-naphthyridin-5-yl)oxy)cyclohexyl)amino)-7,9-dihydro-8H-purin-8-one]
hepatocyte CLint at 1 uM [3]: > 8.2 µL/min/1e6 cells | Hepatocyte Stability Human % rem. 120 min [3]: E (% remaining = 0-25%) | IC50 [4]: < 100 nM

Cn1c(=O)n(C2CCOCC2)c2nc(N[C@H]3CC[C@@H](Oc4nc(N5CCOCC5)cc5ncccc45)CC3)ncc21 [Compound 96, 7-Methyl-2-(((1s,4s)-4-((7-morpholino-1,6-naphthyridin-5-yl)oxy)cyclohexyl)amino)-9-(tetrahydro-2H-pyran-4-yl)-7,9-dihydro-8H-purin-8-one]
hepatocyte CLint at 1 uM [3]: > 8.2 µL/min/1e6 cells | Hepatocyte Stability Human % rem. 120 min [3]: F (% remaining = 25-50%) | IC50 [4]: < 100 nM
